Source: ChEMBL document CHEMBL2434824, “Synthesis, characterization and molecular docking studies of some new 1,3,4-oxadiazolines bearing 6-methylpyridine moiety for antimicrobial property” (Eur J Med Chem, 2013)
Active and inactive are the calls of the source. The calls are words filed in the database; no cut-off is given here.

What was measured:
[1] = system: Radical scavenging activity; test: Antioxidant activity assessed as DPPH radical scavenging activity at 100 ug after 10 mins by UV-Visible spectrophotometry; type: functional
[2] = system: Aspergillus flavus; test: Antifungal activity against Aspergillus flavus at 0.5 to 1 mg/ml at 25 degC after 3 days by well plate method; type: functional, organism-based
[3] = system: Escherichia coli; test: Antibacterial activity against Escherichia coli ATCC 25922 at 0.5 to 1 mg/ml at 37 degC after 18 hrs by well plate method; type: functional, organism-based
[4] = Antifungal activity against Chrysosporium keratinophilum at 0.5 to 1 mg/ml at 25 degC after 3 days by well plate method; type: functional
[5] = system: Staphylococcus aureus; test: Antibacterial activity against Staphylococcus aureus ATCC 25923 at 0.5 to 1 mg/ml at 37 degC after 18 hrs by well plate method; type: functional, organism-based
[6] = system: Pseudomonas aeruginosa; test: Antibacterial activity against Pseudomonas aeruginosa ATCC 27853 at 0.5 to 1 mg/ml at 37 degC after 18 hrs by well plate method; type: functional, organism-based

Question: For CC(=O)N1N=C(c2ccc(C)nc2)OC1(C)c1ccc(-c2ccccc2)cc1 (stereo unspecified), which Activity [1] is on record?
Answer: 47.7%

Question: For COc1ccc2cc(C3OC(c4ccc(C)nc4)=NN3C(C)=O)ccc2c1 (stereo unspecified), which Activity [1] is on record?
Answer: 27.5%

Question: Which Activity [2] does the source give for CC(=O)N1N=C(c2ccc(C)nc2)OC1c1ccc(Cl)cc1Cl (stereo unspecified) here?
Answer: Active

Question: And the Activity [3]?
Answer: Active

Question: And the Activity [4]?
Answer: Active

Question: What about the Activity [5] of the same compound?
Answer: Active

Question: And the Activity [6]?
Answer: Active

Question: And the Activity [1]?
Answer: 62.3%

Question: With CC(=O)N1N=C(c2ccc(C)nc2)OC1c1ccc(Br)cc1 (stereo unspecified) as the compound, how does the Activity [2] read?
Answer: Active

Question: And the Activity [3]?
Answer: Active

Question: And the Activity [4]?
Answer: Active

Question: What about the Activity [5] of the same compound?
Answer: Active

Question: What about the Activity [6] of the same compound?
Answer: Active

Question: And the Activity [1]?
Answer: 65.5%

Question: Which Activity [3] does the source give for CC(=O)N1N=C(c2ccc(C)nc2)OC1c1ccc(Cl)cc1 (stereo unspecified) here?
Answer: Active

Question: And the Activity [5]?
Answer: Active

Question: What about the Activity [6] of the same compound?
Answer: Active

Question: And the Activity [1]?
Answer: 49.2%

Question: Which Activity [2] does the source give for CC(=O)N1N=C(c2ccc(C)nc2)OC1(C)c1cccc(Br)c1 (stereo unspecified) here?
Answer: Active

Question: And the Activity [3]?
Answer: Active

Question: What about the Activity [4] of the same compound?
Answer: Active

Question: And the Activity [5]?
Answer: Active

Question: What about the Activity [6] of the same compound?
Answer: Active

Question: And the Activity [1]?
Answer: 32.9%

Question: With OC(Cn1cncn1)(Cn1cncn1)c1ccc(F)cc1F as the compound, how does the Activity [2] read?
Answer: Active

Question: What about the Activity [4] of the same compound?
Answer: Active

Question: For CC(=O)N1N=C(c2ccc(C)nc2)OC1(C)c1ccc([N+](=O)[O-])cc1 (stereo unspecified), which Activity [3] is on record?
Answer: Active

Question: And the Activity [5]?
Answer: Active

Question: What about the Activity [6] of the same compound?
Answer: Active

Question: What about the Activity [1] of the same compound?
Answer: 52.4%

Question: For CC(=O)N1N=C(c2ccc(C)nc2)OC1c1ccc(-c2ccccc2)cc1 (stereo unspecified), which Activity [1] is on record?
Answer: 15.6%

Question: Which Activity [1] does the source give for CC(=O)N1N=C(c2ccc(C)nc2)OC1c1ccc(O)c(O)c1 (stereo unspecified) here?
Answer: 13.3%

Question: For CC(=O)c1ccc(C2(C)OC(c3ccc(C)nc3)=NN2C(C)=O)cc1 (stereo unspecified), which Activity [1] is on record?
Answer: 42.3%

Question: For CC(=O)N1N=C(c2ccc(C)nc2)OC1(C)c1sccc1Br (stereo unspecified), which Activity [2] is on record?
Answer: Active

Question: And the Activity [3]?
Answer: Active

Question: What about the Activity [4] of the same compound?
Answer: Active

Question: And the Activity [5]?
Answer: Active

Question: What about the Activity [6] of the same compound?
Answer: Active

Question: And the Activity [1]?
Answer: 44.2%

Question: Which results are given for CN[C@@H]1[C@H](O[C@H]2[C@H](O[C@H]3[C@H](O)[C@@H](O)[C@H](N=C(N)N)[C@@H](O)[C@@H]3N=C(N)N)O[C@@H](C)[C@]2(O)C=O)O[C@@H](CO)[C@H](O)[C@H]1O?
Answer: Activity [3]: Active; Activity [5]: Active; Activity [6]: Active

Question: Which Activity [1] does the source give for CC(=O)N1N=C(c2ccc(C)nc2)OC1c1cccs1 (stereo unspecified) here?
Answer: 12%

Question: With Cc1cc(C(C)(C)C)c(O)c(C(C)(C)C)c1 as the compound, how does the Activity [1] read?
Answer: 92.4%

Question: For CC(=O)N1N=C(c2ccc(C)nc2)OC1c1cccc(Cl)c1F (stereo unspecified), which Activity [2] is on record?
Answer: Active

Question: What about the Activity [3] of the same compound?
Answer: Active

Question: What about the Activity [4] of the same compound?
Answer: Active

Question: And the Activity [5]?
Answer: Active

Question: And the Activity [6]?
Answer: Active

Question: What about the Activity [1] of the same compound?
Answer: 37.3%

Question: Which Activity [1] does the source give for COc1ccc(C2OC(c3ccc(C)nc3)=NN2C(C)=O)c(OC)c1 (stereo unspecified) here?
Answer: 24.3%
